{"source": "patent US6440446B1", "about": "“Agent for anti-osteoporosis” (Kabushiki Kaisha Hayashibara Seibutsu Kagaku Kenkyujo, priority 1998, dated 2002)", "key": {"[1]": {"test_system": "ovary-extracted mice (oophorectomized osteoporosis)", "assay": "Animal experiment: intravenous injection to ovary-extracted mice on low-calcium feed, dry weight of femurs and tibia microscopy", "format": "in vivo, female ddY mice", "conditions": "for Bone content compared with the control groups (ovaries extracted, PBS): administered in place of trehalose, data not shown; for Dry weight of extracted tibia / Dry weight of extracted tibia / Body weight: tail vein, 5 ml/kg body weight/shot, once daily, five times a week", "protocol": "An injection containing 10 w/w % trehalose, obtained by the later described Example 7, was diluted with a phosphate buffered saline, which had been filtered with a membrane filter having a pore size of 0.22 μm (hereinafter abbreviated as “PBS”) into a 0.1 w/w % or 1 w/w % trehalose solution. These solutions and the above injection were used for test samples. According to what is done conventionally, female ddY mice, 4-week-old, which had been grouped into 34 heads/group based on their body weight, were anesthetized with sodium pentobarbital, and extracted their ovaries. From the next day, the mice were injected from their tail veins with any one of the test samples at a dose of 5 ml/kg body weight/shot, once every day and five times a week. […] The feed used was a low-calcium feed for ease of making the difference of the bone content.\nIn parallel, the following control groups were provided and treated similarly as the group with trehalose: As control 1, a group in which mice were administered with the same amount of PBS as the test samples in place of them; and as control 2, a group in which mice, that were received with a laparotomy pseudo-operation and were not extracted their ovaries, were administered with the same amount of PBS as the test samples in place of them. Some of the mice administered with trehalose using one w/w t trehalose solution, and the mice in controls 1 and 2 as non-trehalose administration groups were extracted their tibias, followed by observing the tibias microscopically. The specimens for microscopic observation were prepared in the usual manner by immobilizing the extracted tibias with formalin solution, washed with water, delimed, split along with the long axis, and treated with protease K to remove bone marrow cells. The specimens of tibias were observed by a relatively-low vacuum electron-microscope under 24 magnifications, and photographed. The data are respectively in FIGS. 4 to 6. In these figures, white parts are the trabecula of cancellous bone. The osteoporosis occurred in mice extracted their ovaries is called oophorectomized osteoporosis and is an excellent model for postmenopausal osteoporosis as a geriatric osteoporosis."}, "[2]": {"test_system": "ovary-extracted mice (oophorectomized osteoporosis)", "assay": "Animal experiment: oral administration to ovary-extracted mice on low-calcium feed, dry weight of femurs and tibia microscopy", "format": "in vivo, female ddY mice", "excerpt": "According to what is done conventionally, female ddY mice, 4-week-old, which had been grouped into 34 heads/group based on their body weight, were anesthetized with sodium pentobarbital, and extracted their ovaries. From the next day, the mice were orally administered with “TREHAOSE®”, a crystalline trehalose powder containing at least 98% trehalose, d.s.b., commercialized by Hayashibara Shoji, Inc, Okayama, Japan, which had been dissolved in distilled water, at a dose of 0.01, 0.1 or 1 g/kg body weight per shot once every day, five shots in a week. […] The feed used was a low-calcium feed for ease of making the difference of the bone content.\nIn parallel, the following control groups were provided and treated similarly as the group with trehalose: As control 1, a group in which mice were administered with the same amount of distilled water as the aqueous trehalose solution in place of the trehalose solution; as control 2, a group in which mice were administered with estradiol, as a therapeutic agent for osteoporosis, dissolved in the same amount of distilled water as the aqueous trehalose solution in place of the trehalose solution, at a dose of one mg/kg body weight/shot, two times a week; and as control 3, a group in which mice, which were received with a laparotomy pseudo-operation and not extracted their ovaries, were administered with the same amount of distilled water as the aqueous trehalose solution in place of the trehalose solution. Some of the mice administered with trehalose at a dose of 0.1 g/kg body weight/shot, and the mice in controls 1 and 3 as groups with no trehalose were extracted their tibias, followed by observing the tibias microscopically. The specimens for microscopic observation were prepared in the usual manner by immobilizing the extracted tibias with formalin solution, washed with water, delimed, split along with the long axis, and treated with protease K to remove bone marrow cells. The specimens of tibias were observed by a relatively-low vacuum electron-microscope under 24 magnifications, and photographed. The data are respectively in FIGS. 1 to 3. In these figures, white parts are the trabecula of cancellous bone. The osteoporosis occurred in the mice extracted their ovaries is called oophorectomized osteoporosis and is an excellent model for postmenopausal osteoporosis as a geriatric osteoporosis."}, "osteoclasts [3]": {"test_system": "osteoclasts", "assay": "Osteoclast count in cultured bone marrow cells from tibias of orally treated mice (tartaric-acid-resistant acid phosphatase staining)", "format": "cell-based, ddY mice", "conditions": "bone marrow cells from mice given oral 0.1 g/kg body weight/shot; control 1 at least 3-times", "excerpt": "Similarly as above, the tibias were extracted from some mice, excluding the aforesaid mice which had been extracted their tibias, in the group with trehalose at a dose of 0.1 g/kg body weight/shot, and in the groups 1 and 3. From each tibia, bone marrow cells were collected in the usual manner and suspended in α-MEM medium, supplemented with 10 v/v % fetal calf serum, to give a cell density of 1.5×10^6 cells/ml. The resulting cell suspensions were respectively placed in 24-well plates in a volume of 0.5 ml/well. To each well was added 0.25 ml/well of a cell suspension with a cell density of 4×10^4 cells/ml of osteoblast-like cells suspended in a fresh preparation of the same medium as above. A solution of 4×10^9M 1α, 25-dihydroxy vitamin D3, dissolved in a fresh preparation of the same medium as above, was added to each well in a volume. of 0.25 ml/well. The resulting cell suspension mixtures were incubated in a 5 v/v % CO2 incubator at 37° C. for six days while replacing the media with a fresh preparation of α-MEM medium containing 1×10^9M 1α, 25-dihydroxy vitamin D3 and 10 v/v % fetal calf serum.\nAfter completion of the culture, the supernatants were removed, and the cells in each well were fixed with formalin, and treated in the usual manner with “NAPHTHOL AS-MS PHOSPHATE” and “RED VIOLET LB SALT”, which are commercialized by Sigma Chemical Company, ST. […]"}, "ddY mice": {"test_system": "ddY mice", "conditions": "mouse, in vivo", "protocol": "An adequate amount of “TREHAOSE®”, a crystalline trehalose powder having at least 98% of trehalose, d.s.b., commercialized by Hayashibara Shoji, Inc., Okayama, Japan, was dissolved in physiological saline containing 5 w/w % gum arabic, and the solution was sterilized in the usual manner. The sterilized solution was injected intraperitoneally or orally administered using a gastric tube to ddY mice, 20-25 g weight, in a group of 10 heads, followed by the observation for seven days. As a result, independently of the administration routes, no mouse died even administered with the maximum dose, 15 g/kg body weight."}, "osteoclasts [4]": {"test_system": "osteoclasts", "assay": "Osteoclast count in cultured bone marrow cells from tibias of intravenously treated mice (tartaric-acid-resistant acid phosphatase staining)", "format": "cell-based, ddY mice", "conditions": "bone marrow cells from mice given 10% trehalose solution, about 5 ml/kg body weight/shot; control 1 at least 3-times", "protocol": "Similarly as above, the tibias were extracted from some mice, excluding the aforesaid mice which had been extracted their tibias, in the group with 10% trehalose solution at a dose of about 5 ml/kg body weight/shot, and in the groups 1 and 3. From each tibia, bone marrow cells were collected in the usual manner and suspended in α-MEM medium, supplemented with 10 v/v % fetal calf serum, to give a cell density of 1.5×10^6 cells/ml. The resulting cell suspensions were respectively placed in 24-well plates in a volume of 0.5 ml/well. To each well was added 0.25 ml/well of a cell suspension with a cell density of 4×10^4 cells/ml of osteoblast-like cells suspended in a fresh preparation of the same medium as above. A solution of 4×10^9M 1α, 25-dihydroxy vitamin D3, dissolved in a fresh preparation of the same medium as above, was added to each well in a volume of 0.25 ml/well. The resulting cell suspension mixtures were incubated in a 5 v/v % CO2 incubator at 37° C. for six days while replacing the media with a fresh preparation of α-MEM medium containing 1×10^9M 1α, 25-dihydroxy vitamin D3 and 10 v/v % fetal calf serum.\nAfter completion of the culture, the supernatants were removed, and the cells in each well were fixed with formalin, and treated in the usual manner with “NAPHTHOL AS-MS PHOSPHATE” and “RED VIOLET LB”, which are commercialized by Sigma Chemical Company, ST. […]"}, "[5]": {"conditions": "one mg/kg body weight/shot, two times a week (control 2), ovary-extracted mice"}, "[6]": {"conditions": "oral 0.01 g/kg body weight/shot, once daily, five shots a week, ovary-extracted mice"}, "[7]": {"conditions": "oral 0.1 g/kg body weight/shot, once daily, five shots a week, ovary-extracted mice"}, "[8]": {"conditions": "oral 1 g/kg body weight/shot, once daily, five shots a week, ovary-extracted mice"}}, "note": "Where two headings read alike, the source gives them in different places."}
{"smiles": "OC[C@H]1O[C@H](O[C@H]2[C@H](O)[C@@H](O)C(O)O[C@@H]2CO)[C@H](O)[C@@H](O)[C@@H]1O", "note": "(mixture of isomers) [maltose, reference compound]", "values": [{"measurement": "Bone content compared with the control groups (ovaries extracted, PBS)", "setting": "[1]", "result": "no significant difference"}]}
{"smiles": "C[C@]12CC[C@@H]3c4ccc(O)cc4CC[C@H]3[C@@H]1CC[C@@H]2O", "note": "[Estradiol, estradiol, reference compound]", "values": [{"measurement": "Dry weight of extracted tibia", "setting": "[2]; [5]", "result": "119.9 ± 7.5", "unit": "mg"}, {"measurement": "Dry weight of extracted tibia / Body weight", "setting": "[2]; [5]", "result": "3.520 ± 0.240", "unit": "mg/g"}]}
{"smiles": "OC[C@H]1O[C@H](O[C@H]2O[C@H](CO)[C@@H](O)[C@H](O)[C@H]2O)[C@H](O)[C@@H](O)[C@@H]1O", "note": "[Trehalose, trehalose]", "values": [{"measurement": "Dry weight of extracted tibia", "setting": "[2]; [6]", "result": "83.6 ± 7.0", "unit": "mg"}, {"measurement": "Dry weight of extracted tibia / Body weight", "setting": "[2]; [6]", "result": "2.643 ± 0.195", "unit": "mg/g"}, {"measurement": "Dry weight of extracted tibia", "setting": "[2]; [7]", "result": "85.0 ± 5.2", "unit": "mg"}, {"measurement": "Dry weight of extracted tibia / Body weight", "setting": "[2]; [7]", "result": "2.723 ± 0.163", "unit": "mg/g"}, {"measurement": "Reduction of trabecula in cancellous bone and expansion of the cavity of marrow (tibia, electron microscope x24, FIG. 1)", "setting": "[2]; oral 0.1 g/kg body weight/shot, ovary-extracted mice", "result": "clearly inhibited"}, {"measurement": "Dry weight of extracted tibia", "setting": "[2]; [8]", "result": "88.4 ± 6.4", "unit": "mg"}, {"measurement": "Dry weight of extracted tibia / Body weight", "setting": "[2]; [8]", "result": "2.762 ± 0.172", "unit": "mg/g"}, {"measurement": "Abnormality induced by the administration", "setting": "[2]; oral, observation throughout the experiment", "result": "No abnormality"}, {"measurement": "Dose at which the inhibitory effect on the lowering of the bone content was found", "setting": "[2]; oral, ovary-extracted mice", "result": "about 0.1 g/kg body weight/shot"}, {"measurement": "Number of osteoclasts relative to control 2 (times higher)", "setting": "osteoclasts [3]", "result": "about 2 times"}, {"measurement": "Death at the maximum dose", "setting": "ddY mice; ip", "result": "no mouse died"}, {"measurement": "Death at the maximum dose", "setting": "ddY mice; po", "result": "no mouse died"}, {"measurement": "Dry weight of extracted tibia", "setting": "[1]; 0.1 w/w % trehalose solution", "result": "84.2 ± 6.9", "unit": "mg"}, {"measurement": "Dry weight of extracted tibia / Body weight", "setting": "[1]; 0.1 w/w % trehalose solution", "result": "2.639 ± 0.213", "unit": "mg/g"}, {"measurement": "Dry weight of extracted tibia", "setting": "[1]; 1 w/w % trehalose solution", "result": "86.9 ± 6.1", "unit": "mg"}, {"measurement": "Dry weight of extracted tibia / Body weight", "setting": "[1]; 1 w/w % trehalose solution", "result": "2.716 ± 0.191", "unit": "mg/g"}, {"measurement": "Dry weight of extracted tibia", "setting": "[1]; 10 w/w % trehalose injection", "result": "89.7 ± 5.5", "unit": "mg"}, {"measurement": "Dry weight of extracted tibia / Body weight", "setting": "[1]; 10 w/w % trehalose injection", "result": "2.777 ± 0.170", "unit": "mg/g"}, {"measurement": "Trehalose concentration at which the inhibitory effect on the lowering of bone content was found", "setting": "[1]; intravenous, about 5 ml/kg body weight/shot", "result": "~1", "unit": "w/w %"}, {"measurement": "Abnormality induced by the administration", "setting": "[1]; intravenous, observation throughout the experiment", "result": "No abnormality"}, {"measurement": "Reduction of the trabecula in cancellous bone and expansion of the cavity of marrow (tibia, electron microscope x24, FIG. 4)", "setting": "[1]; one w/w % trehalose solution, intravenous 5 ml/kg body weight/shot", "result": "clearly inhibited"}, {"measurement": "Number of osteoclasts relative to control 2 (times higher)", "setting": "osteoclasts [4]", "result": "about 2 times"}]}
{"smiles": "OC[C@@H](O)[C@@H](O)[C@H](O)[C@@H](O)CO", "note": "[sorbitol, reference compound]", "values": [{"measurement": "Bone content compared with the control groups (ovaries extracted, PBS)", "setting": "[1]", "result": "no significant difference"}]}
{"smiles": "OC[C@H]1O[C@@](CO)(O[C@H]2O[C@H](CO)[C@@H](O)[C@H](O)[C@H]2O)[C@@H](O)[C@@H]1O", "note": "[sucrose, reference compound]", "values": [{"measurement": "Bone content compared with the control group (ovaries extracted, distilled water)", "setting": "[2]; administered in place of trehalose, data not shown", "result": "no significant difference"}]}
{"smiles": "OC[C@@H](O)[C@H](O)[C@@H](O)CO", "note": "[xylitol, reference compound]", "values": [{"measurement": "Bone content compared with the control groups (ovaries extracted, PBS)", "setting": "[1]", "result": "no significant difference"}]}
